Experimental data: patent publication US20040219607A1, “Ligand screening and design by X-ray crystallography” (priority 1998, published 2004)
Like-named read-outs stand apart in the source and are kept apart here.

Tests used:
[1] = pKa of CrystaLEAD hits
[2] = target: T1, human urokinase (μUK) (Homo sapiens, UniProt P00749, C299A/N322Q); experiment: Urokinase inhibition constants by S-2444 chromogenic activity; type: biochemical
T1 construct: μUK (UK amino acids Ile^159-Lys^404 that contain Ala^279Gln^302); made in house; host or cells: baculovirus-infected High-Five insect cells or Pichia pastoris GS115 (secreted)
Protocol: Assays were completed at both pH 6.5 (0.1 M NaPO4) and 7.4 (50 mM Tris).

[3] = target: μUK (Homo sapiens, UniProt P00749, C299A/N322Q); conditions: for binding at the urokinase active site seen in Fo-Fc electron density map: crystal soaked in mixture of 6 to 7 compounds, 3.3 to 5.2 mM each, compound 31 soaked individually
[4] = Oral bioavailability in the rat; conditions: in vivo, 10 mg/kg dose
[5] = target: VanX (Enterococcus faecium, UniProt Q06241); experiment: CrystaLEAD crystallographic screening of VanX crystals; conditions: crystals soaked in mixtures of 7-10 compounds
Sequence of VanX (Q06241 whole entry): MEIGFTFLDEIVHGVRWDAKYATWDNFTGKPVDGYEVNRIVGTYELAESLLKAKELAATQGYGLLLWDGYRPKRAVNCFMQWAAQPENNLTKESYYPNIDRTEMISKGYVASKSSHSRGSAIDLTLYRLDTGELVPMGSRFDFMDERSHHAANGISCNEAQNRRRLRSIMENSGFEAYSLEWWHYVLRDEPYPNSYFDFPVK

[6] = target: T2, ErmC′ (Bacillus subtilis, UniProt P13956); experiment: CrystaLEAD crystallographic screening of ErmC′ crystals; type: binding; conditions: adenosine library, mixtures of 8-9 compounds
T2 construct: made in house; host or cells: E. coli BL21(DE3)/pLysS with pTERM31 (pET24+ derivative)
T2 sequence (P13956 whole entry): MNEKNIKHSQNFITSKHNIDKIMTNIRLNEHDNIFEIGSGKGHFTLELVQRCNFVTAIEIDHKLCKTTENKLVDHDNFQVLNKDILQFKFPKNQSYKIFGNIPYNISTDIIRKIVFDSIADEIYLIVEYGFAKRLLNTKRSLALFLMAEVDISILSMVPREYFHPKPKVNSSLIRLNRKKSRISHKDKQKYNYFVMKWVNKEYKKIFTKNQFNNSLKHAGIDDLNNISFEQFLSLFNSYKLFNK
Source text: The adenosine library consisted of 59 compounds. The library was divided into 7 mixtures of 8-9 shape-diverse compounds and screened by the CrystaLEAD™ method. […] Equal volumes of each compound were mixed to assemble the mixture of […].
Typical usable data were 80-90% complete at 3.4-3.6 Å resolution with merging R-factors of 7-16%.

[7] = pH 6.5 (0.1 M NaPO4), S-2444 substrate, read-out: Ki (pH 6.5)
[8] = pH 7.4 (50 mM Tris), S-2444 substrate, read-out: Ki (pH 7.4)

Row | Structure (SMILES) | pKa [1] | binding at the urokinase active site seen in Fo-Fc electron density map [3] | binding at the VanX active site seen in electron density map [5] | further results
1 | Cc1nc(N)ccc1Br [Compound 5] | 6 | binder |  | Ki [2, 7]: > 500 µM; Ki [2, 8]: > 500 µM
2 | Nc1ccc2cccc(O)c2n1 [Compound 19, 2-amino-8-hydroxyquinoline] | 7.3 | bound |  | Ki ([2]; Ki (pH 7.4), pH 7.4 (50 mM Tris), S-2444 substrate): 137 µM; Ki ([2]; Ki at pH 6.5, pH 6.5, restated in Example 3): 56 µM; binding at the urokinase active site seen in electron density map, 100 compound mixture ([3]; mixture of 100 compounds spiked with compound 19 at 180 μM, 1% DMSO, 4 hours 15 minutes soak): positive hit
3 | Nc1ccc2c(c1)CC=N2 [Compound 22, 5-aminoindole] | 6 | found to bind |  | Ki [2, 7]: 200 µM; Ki [2, 8]: > 500 µM
4 | Cc1ccc(N)nc1 [Compound 31] | 7 | found to bind |  | Ki ([2]; Ki (pH 6.5)): > 500 µM; Ki ([2]; Ki (pH 7.4)): > 500 µM
5 | Nc1ccc2cccc(Nc3ncccn3)c2n1 [Compound 35, 8-aminopyrimidinyl-2-aminoquinoline] |  |  |  | bioavailability [4]: 30 to 40%
6 | O=C(O)C1CCCC1 [Compound 36] |  |  | bound | 
7 | O=C(O)CCC1CCCC1 [Compound 37] |  |  | found to bind | 
8 | O=C(O)C(=O)CS [Compound 39] |  |  | bound | 
9 | N[C@@H](CS)C(=O)O [Compound 41] |  |  | binding | 
10 | OCC1OC(n2cnc3c(NCc4ccccc4)ncnc32)C(O)C1O (stereo not drawn) [Compound 44] |  |  |  | binding to ErmC′ seen in electron density map [6]: hits
11 | OCC1OC(n2cnc3c(NC4CCCCC4)ncnc32)C(O)C1O (stereo not drawn) [Compound 45] |  |  |  | binding to ErmC′ seen in electron density map [6]: hits
